Data published in ChEMBL document CHEMBL6074689 (Eur J Med Chem, 2025).
Activity calls are given as the source filed them. No cut-off for these calls is given here.

Experiments:
Acetylcholinesterase [1] = biological target: T1, Acetylcholinesterase (Homo sapiens, UniProt P22303); assay: Inhibition of human recombinant AChE expressed in HEK293 cells using acetylthiocholine iodide as substrate preincubated with compound for 30 mins followed by substrate addition and measured after 30 mins by DTNB reagent based Ellman's method
Cholinesterase = Cholinesterase (Equus caballus, UniProt P81908); assay: Inhibition of equine serum BChE using acetylthiocholine iodide as substrate preincubated with compound for 30 mins followed by substrate addition and measured after 30 mins by DTNB reagent based Ellman's method
[2] = biological target: Cholinesterase (Equus caballus) (UniProt P81908); assay: Reversible binding affinity to equine serum BChE using acetylthiocholine iodide as substrate assessed as equilibrium binding constant preincubated for 40 mins by DTNB reagent based Ellman's method
Acetylcholinesterase [3] = biological target: T1, Acetylcholinesterase; assay: Reversible binding affinity to human AChE using acetylthiocholine iodide as substrate assessed as binding constant preincubated for 40 mins by DTNB reagent based Ellman's method
[4] = biological target: Cholinesterase (Equus caballus) (UniProt P81908); assay: Reversible binding affinity to equine serum BChE using acetylthiocholine iodide as substrate assessed as binding constant preincubated for 40 mins by DTNB reagent based Ellman's method
Acetylcholinesterase [5] = biological target: T1, Acetylcholinesterase; assay: Displacement of propidium iodide from human AChE PAS assessed as reduction in fluorescence intensity at 5 uM incubated for 6 hrs by fluorescence based analysis relative to control; parameters: scale not given: the % may be the effect or the level left
Acetylcholinesterase [6] = biological target: T1, Acetylcholinesterase; assay: Displacement of propidium iodide from human AChE PAS assessed as reduction in fluorescence intensity at 0.1 uM incubated for 6 hrs by fluorescence based analysis relative to control; parameters: scale not given: the % may be the effect or the level left
[7] = Antioxidant activity assessed as DPPH radical scavenging activity at 200 uM incubated for 30 mins relative to control; type: functional
PC-12 [8] = assay: Induction of apoptosis in rat PC-12 cells assessed as viable cells at 10 uM incubated for 24 hrs by Annexin V/PI staining based flow cytometry analysis (reference value: 82.8%); type: functional; settings: read-out: Activity
PC-12 [9] = assay: Induction of apoptosis in rat PC-12 cells assessed as viable cells at 5 uM incubated for 24 hrs by Annexin V/PI staining based flow cytometry analysis (reference value: 82.8%); type: functional; settings: read-out: Activity
PC-12 [10] = assay: Induction of apoptosis in rat PC-12 cells assessed as viable cells at 20 uM incubated for 24 hrs by Annexin V/PI staining based flow cytometry analysis (reference value: 82.8%); type: functional; settings: read-out: Activity
[11] = Metal chelating activity assessed as compound-Fe2+ complex formation by measuring increase in absorption intensity at 300 uM in presence of by UV-vis spectrometry
[12] = Metal chelating activity assessed as compound-Cu2+ complex formation by measuring increase in absorption intensity at 300 uM in presence of by UV-vis spectrometry
[13] = biological target: Amyloid-beta precursor protein (Homo sapiens) (UniProt P05067); assay: Inhibition of amyloid beta (1 to 42) (unknown origin) self induced aggregation at 1.521 uM incubated for 72 hrs by ThT fluorescence based assay
[14] = biological target: Amyloid-beta precursor protein (Homo sapiens) (UniProt P05067); assay: Inhibition of amyloid beta (1 to 42) (unknown origin) self induced aggregation at 1.521 uM incubated for 72 hrs by transmission electron microscopic analysis
[15] = Toxicity in Drosophila melanogaster Oregon R-positive assessed as reduction in eclosed flies at 20 uM measured for 15 days relative to control; parameters: scale not given: the % may be the effect or the level left; settings: 360 h, time 15 day
[16] = Toxicity in Drosophila melanogaster Oregon R-positive assessed as reduction in eclosed flies at 10 uM measured for 15 days relative to control; parameters: scale not given: the % may be the effect or the level left; settings: 360 h, time 15 day
[17] = Toxicity in Drosophila melanogaster Oregon R-positive assessed as reduction in eclosed flies at 40 uM measured for 15 days relative to control; parameters: scale not given: the % may be the effect or the level left; settings: 360 h, time 15 day
[18] = Acute toxicity in Swiss albino mouse assessed as body weight gain at 175 mg/kg, po administered for 14 days; type: organism-based; settings: in vivo, 336 h, time 14 day
Drosophila melanogaster [19] = assay: Anti-alzheimer activity in ey-GAL4 driven UAS-amyloid beta (1 to 42) induced Drosophila melanogaster Oregon R-positive assessed as mild eye phenotype at 10 to 20 uM by Stereo zoom microscopic imaging analysis relative to control; type: functional; settings: dose 10-20 µM
Drosophila melanogaster [20] = assay: Anti-alzheimer activity in ey-GAL4 driven UAS-amyloid beta (1 to 42) induced Drosophila melanogaster Oregon R-positive assessed as severe eye phenotype at 10 to 20 uM by Stereo zoom microscopic imaging analysis relative to control; type: functional; settings: dose 10-20 µM
Drosophila melanogaster [21] = assay: Anti-alzheimer activity in ey-GAL4 driven UAS-amyloid beta (1 to 42) induced Drosophila melanogaster Oregon R-positive assessed as rescued eye phenotype at 10 to 20 uM by Stereo zoom microscopic imaging analysis relative to control; type: functional; settings: dose 10-20 µM
Drosophila melanogaster [22] = assay: Anti-alzheimer activity in ey-GAL4 driven UAS-amyloid beta (1 to 42) induced Drosophila melanogaster Oregon R-positive assessed as severe eye phenotype at 10 uM by Stereo zoom microscopic imaging analysis relative to control; type: functional
Drosophila melanogaster [23] = assay: Anti-alzheimer activity in ey-GAL4 driven UAS-amyloid beta (1 to 42) induced Drosophila melanogaster Oregon R-positive assessed as mild eye phenotype at 40 uM by Stereo zoom microscopic imaging analysis relative to control; type: functional
Drosophila melanogaster [24] = assay: Anti-alzheimer activity in ey-GAL4 driven UAS-amyloid beta (1 to 42) induced Drosophila melanogaster Oregon R-positive assessed as severe eye phenotype at 40 uM by Stereo zoom microscopic imaging analysis relative to control; type: functional
Drosophila melanogaster [25] = assay: Anti-alzheimer activity in ey-GAL4 driven UAS-amyloid beta (1 to 42) induced Drosophila melanogaster Oregon R-positive assessed as increase in superoxide level at 10 to 20 uM by fluorescence based analysis; type: functional, organism-based; settings: dose 10-20 µM
Drosophila melanogaster [26] = assay: Inhibition of oxidative stress in y-GAL4 driven UAS-amyloid beta (1 to 42) induced Drosophila melanogaster Oregon R-positive assessed as reduction in ROS level at 10 to 20 uM incubated for 30 mins by H2DCFDA staining based analysis; type: functional, organism-based; settings: dose 10-20 µM
[27] = Acute toxicity in Swiss albino mouse assessed as animal survival at 175 mg/kg, po administered for 14 days; type: organism-based; settings: in vivo, 336 h, time 14 day
[28] = Acute toxicity in Swiss albino mouse assessed as abnormal behavior at 175 mg/kg, po administered for 14 days; type: organism-based; settings: in vivo, 336 h, time 14 day
[29] = Acute toxicity in Swiss albino mouse assessed as convulsion at 175 mg/kg, po administered for 14 days; type: organism-based; settings: in vivo, 336 h, time 14 day
Mus musculus [30] = assay: Antialzheimer activity in scopolamine-induced Swiss albino mouse model assessed as reduction in BChE level at 0.3 to 0.5 mg/kg, po preincubated with compound for 30 mins followed by scopolamine induction and measured after 30 mins; type: functional, organism-based; settings: dose 0.3-0.5 mg/kg, time 1.0 hrs
Mus musculus [31] = assay: Neuroprotective activity against scopolamine-induced Swiss albino mouse model assessed as effect on GAP43 mRNA level at 0.3 to 0.5 mg/kg, po measured after 6 days by RT-PCR analysis; type: functional, organism-based; settings: dose 0.3-0.5 mg/kg, time 6.0 day
Mus musculus [32] = assay: Neuroprotective activity against scopolamine-induced Swiss albino mouse model assessed as effect on PSD95 mRNA level at 0.3 to 0.5 mg/kg, po measured after 6 days by RT-PCR analysis; type: functional, organism-based; settings: dose 0.3-0.5 mg/kg, time 6.0 day
Mus musculus [33] = assay: Neuroprotective activity against scopolamine-induced Swiss albino mouse model assessed as upregulation of MMP9 mRNA level at 0.3 to 0.5 mg/kg, po measured after 6 days by RT-PCR analysis; type: functional, organism-based; settings: dose 0.3-0.5 mg/kg, time 6.0 day

T1 sequence (P22303 whole entry): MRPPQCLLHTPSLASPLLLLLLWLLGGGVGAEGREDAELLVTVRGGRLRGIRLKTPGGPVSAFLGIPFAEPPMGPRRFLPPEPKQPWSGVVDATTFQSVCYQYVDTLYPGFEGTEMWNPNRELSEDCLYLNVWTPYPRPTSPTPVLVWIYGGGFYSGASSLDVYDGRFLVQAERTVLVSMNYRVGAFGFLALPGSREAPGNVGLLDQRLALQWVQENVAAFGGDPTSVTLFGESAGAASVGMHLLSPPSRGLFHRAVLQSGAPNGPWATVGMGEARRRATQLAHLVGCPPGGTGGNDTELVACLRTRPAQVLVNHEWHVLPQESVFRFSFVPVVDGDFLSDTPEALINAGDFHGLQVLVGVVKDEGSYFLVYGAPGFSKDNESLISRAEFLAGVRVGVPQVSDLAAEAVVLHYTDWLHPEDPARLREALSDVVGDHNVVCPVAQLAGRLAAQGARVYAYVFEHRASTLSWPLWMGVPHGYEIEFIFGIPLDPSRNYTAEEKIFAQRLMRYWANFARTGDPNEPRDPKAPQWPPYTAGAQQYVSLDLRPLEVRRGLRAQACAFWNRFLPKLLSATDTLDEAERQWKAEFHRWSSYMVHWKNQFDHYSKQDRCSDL
Chain of Amyloid-beta precursor protein (Homo sapiens) (P05067 whole entry): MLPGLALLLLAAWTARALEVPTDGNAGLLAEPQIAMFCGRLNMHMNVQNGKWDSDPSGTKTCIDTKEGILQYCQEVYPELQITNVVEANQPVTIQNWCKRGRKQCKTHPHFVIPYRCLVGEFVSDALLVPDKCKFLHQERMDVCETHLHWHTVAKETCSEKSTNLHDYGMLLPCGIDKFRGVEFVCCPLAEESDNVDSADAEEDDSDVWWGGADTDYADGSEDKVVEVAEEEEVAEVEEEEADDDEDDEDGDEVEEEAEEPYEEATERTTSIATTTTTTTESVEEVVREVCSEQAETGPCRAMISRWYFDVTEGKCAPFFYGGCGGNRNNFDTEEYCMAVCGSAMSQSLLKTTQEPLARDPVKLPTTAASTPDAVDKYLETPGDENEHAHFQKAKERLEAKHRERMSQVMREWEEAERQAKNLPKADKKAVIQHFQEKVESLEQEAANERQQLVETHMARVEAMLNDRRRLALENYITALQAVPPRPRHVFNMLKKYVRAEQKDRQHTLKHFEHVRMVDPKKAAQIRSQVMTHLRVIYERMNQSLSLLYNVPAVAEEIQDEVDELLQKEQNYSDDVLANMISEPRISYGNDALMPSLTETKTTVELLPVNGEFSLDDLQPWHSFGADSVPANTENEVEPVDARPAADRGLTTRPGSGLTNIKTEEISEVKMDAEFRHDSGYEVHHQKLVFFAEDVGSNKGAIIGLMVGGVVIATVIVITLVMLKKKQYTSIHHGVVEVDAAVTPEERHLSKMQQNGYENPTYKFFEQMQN
Chain of Cholinesterase (Equus caballus) (P81908 whole entry): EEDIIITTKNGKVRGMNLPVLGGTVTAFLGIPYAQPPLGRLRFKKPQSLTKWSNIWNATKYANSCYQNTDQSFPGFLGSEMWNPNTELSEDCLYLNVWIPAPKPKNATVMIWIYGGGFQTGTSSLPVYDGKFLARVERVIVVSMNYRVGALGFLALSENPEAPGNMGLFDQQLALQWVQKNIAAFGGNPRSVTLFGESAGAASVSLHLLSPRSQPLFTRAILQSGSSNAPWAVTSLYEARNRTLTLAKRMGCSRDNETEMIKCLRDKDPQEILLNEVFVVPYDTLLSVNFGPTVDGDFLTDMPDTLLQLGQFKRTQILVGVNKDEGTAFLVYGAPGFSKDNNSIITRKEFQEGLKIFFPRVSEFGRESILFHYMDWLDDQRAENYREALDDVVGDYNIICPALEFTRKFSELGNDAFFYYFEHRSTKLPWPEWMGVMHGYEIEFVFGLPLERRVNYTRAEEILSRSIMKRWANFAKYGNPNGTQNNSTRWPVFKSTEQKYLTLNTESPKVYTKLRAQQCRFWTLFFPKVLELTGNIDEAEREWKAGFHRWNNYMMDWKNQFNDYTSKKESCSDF
Chain of Cholinesterase (P81908 whole entry): as above

With `C[C@@H](c1cccc(OC(=O)NCCc2c[nH]c3ccc(Cl)cc23)c1)N(C)C` the IC50 (Acetylcholinesterase [1]) was 7.97 nM, the IC50 (Cholinesterase) was 0.79 nM and the Kb [2] was 0.13 nM. It also gave a K (Acetylcholinesterase [3]) of 0.041 min⁻¹, a K [4] of 0.035 min⁻¹ and an Activity (Acetylcholinesterase [5]) of 21.9%. It also gave an Activity (Acetylcholinesterase [6]) of 3.56%, an Activity [7] of 38.9% and a viability at 10 µM (PC-12 [8]) of 55.3%. The viability at 5 µM (PC-12 [9]) was 81.1%, the viability at 20 µM (PC-12 [10]) was 81.5% and the Activity [11] was “inactive”. For the same compound, the Activity [12] was “inactive”, the inhibition [13] was 100% and the inhibition [14] was “Active”. For the same compound, the Activity [15] was 103%, the Activity [16] was 108% and the Activity [17] was 20%. For the same compound, the Activity [18] was “Non-toxic”, the Activity (Drosophila melanogaster [19]) was 36% and the Activity (Drosophila melanogaster [20]) was 20%. It also gave an Activity (Drosophila melanogaster [21]) of 36%, an Activity (Drosophila melanogaster [22]) of 20% and an Activity (Drosophila melanogaster [23]) of 43%. For the same compound, the Activity (Drosophila melanogaster [24]) was 16%, the Activity (Drosophila melanogaster [25]) was “Active” and the Activity (Drosophila melanogaster [26]) was “Active”. The Activity [27] was “Non-toxic”, the Activity [28] was “Non-toxic” and the Activity [29] was “Non-toxic”. The Activity (Mus musculus [30]) was “Active”, the Activity (Mus musculus [31]) was “Active” and the Activity (Mus musculus [32]) was “Active”. For the same compound, the Activity (Mus musculus [33]) was “Active”.
